Where a name gives a salt, the structure may show the parent alone. Some results are limits rather than exact numbers.

Here are results for three compounds from patent US4533553A, “Polycyclic ether antibiotic” (priority 1983, dated 1985).

One assay relates to Clostridium perfringens. The assay is described as follows: microbe, parasite or virus in culture. Format: cell-based.
The test system of another assay is Bacteroides fragilis. The assay is described as follows: in vitro MIC test. Format: cell-based. The following applies: 24 h. On the procedure: (§1) In Table I, below, the results of in vitro MIC tests are summarized. For this test each organism is inoculated in a series of test tubes containing nutrient medium and varying concentrations of Compound 53,607 to determine the minimal concentration of the antibiotic in mcg/ml which inhibits the growth of the organism over a period of 24 hours (MIC).

A further assay concerns Corynebacterium pyogenes. The assay can be described thus: in vitro MIC test. In kind it is cell-based. The following applies: Rhodococcus (subgen. Prescottella) equi; strain 11D001, 24 hours. On the procedure: as §1
Another assay deals with Streptococcus faecalis. The assay can be described thus: in vitro MIC test. Format: cell-based. To be noted: Enterococcus faecalis; strain 02A006, 24 hours. As for the experimental part:
as §1

The test system of another assay is Streptococcus pyogenes. The assay can be described thus: in vitro MIC test. Format: cell-based. The following applies: 24 h. As for the experimental part:
as §1

In the next assay the test system is Treponema hyodysenteriae. The assay can be described thus: in vitro MIC test. The following applies: Brachyspira hyodysenteriae, 24 h. Format: cell-based. On the procedure: as §1
In a further assay the test system is Staphylococcus aureus. The assay can be described thus: in vitro MIC test. In kind it is cell-based. To be noted: 24 h. On the procedure: as §1
A further assay has as its system Haemophilus influenza. The assay can be described thus: in vitro MIC test. Format: cell-based. To be noted: 24 h. As for the experimental part: as §1
Assay [1] concerns Staphylococcus epidermidis. The assay can be described thus: in vitro MIC test. Format: cell-based. The following applies: 24 h. As for the experimental part: as §1
The subject of a further assay is Bacillus subtilis. The assay is described as follows: in vitro MIC test. The following applies: strain 06A001, 24 hours. Format: cell-based. As for the experimental part:
as §1

A further assay concerns Pasteurella multocida. The assay can be described thus: in vitro MIC test. Format: cell-based. To be noted: strain 59A001, 24 hours. On the procedure: as §1
Assay [2] has as its system Fusobacterium necrophorum. The assay can be described thus: in vitro MIC test. The following applies: strain 84C004, 24 hours. Format: cell-based. As for the experimental part:
as §1

The next assay relates to Bacteroides vulgatis. The assay can be described thus: in vitro MIC test. In kind it is cell-based. To be noted: strain 78E032, 24 hours. On the procedure:
as §1

A further assay deals with Neisseria sicca. The assay can be described thus: in vitro MIC test. In kind it is cell-based. The following applies: strain 66C000, 24 hours. As for the experimental part: as §1
The test system of another assay is rumen fluid. The assay is described as follows: in vitro rumen technique, propionic acid production. Also noted: species or system cow. On the procedure:
The value of animal feeds generally has been determined directly by feeding the animal. British Patent Specification No. 1,197,826 details an in vitro rumen technique whereby the changes occurring in feeds brought about by microorganisms are measured more readily and with great accuracy in the evaluation of animal feeds. This technique involves the use of an apparatus in which the digestive processes of the animals are conducted and studied in vitro. The animal feeds, rumen inoculum and various growth promotants are introduced into and withdrawn from a laboratory unit under carefully controlled conditions and the changes taken place are studied critically and progressively during the consumption of the feed by the microorganisms. […] The change in propionic acid content is expressed as percent of the propionic acid content found in the control rumen fluid. Long term in vivo feeding studies are used to show a reliable correlation between propionic acid increase in the rumen fluid and improved animal performance.
Rumen fluid is collected from a fistulated cow which is fed on a commercial fattening ration plus hay. The rumen fluid is immediately filtered through cheese cloth, and 10 ml added to a 50 ml conical flask containing 400 mg. of standard substrate (68% corn starch+17% cellulose+15% extracted soybean meal), 10 ml. of a pH 6.8 buffer and the test compound. The flasks are gassed with oxygen free nitrogen for about two minutes, and incubated in a shaking water bath at 39° C. for about 16 hours. All tests are conducted in triplicate.
After incubation, 5 ml. of the sample is mixed with 1 ml. of 25% metaphosphoric acid. After 10 minutes 0.25 ml. of formic acid is added and the mixture centrifuged at 1,500 r.p.m. for 10 minutes. Samples are then analyzed by gas-liquid chromatograhy by the method of D. W. Kellog, J. Dairy Science, 52, 1690 (1969). Peak heights for acetic, propionic and butyric acids are determined for samples from untreated and treated incubation flasks.

For `CC(=CC(C)C1OC2(CCC(C)(C3CCC(C)C4(OC(C5OC(O)(CO)C(C)CC5C)CC4C)O3)O2)CC(O)C1C)C(=O)C(C)CC(C)C(=O)O` (stereo not drawn) [53,607 (sodium salt)], the MIC with Clostridium perfringens (Clostridium perfringens, 24 h) worked out at 0.98 µg/mL; against Clostridium perfringens (strain 10A003, 24 hours), 0.98 µg/mL; against Bacteroides fragilis (strain 78C004, 24 hours), 12.5 µg/mL; in the assay on Bacteroides fragilis (strain 78C009, 24 hours), 6.25 µg/mL; in the assay on Bacteroides fragilis (strain 78C010, 24 hours), 6.25 µg/mL; in the assay with Corynebacterium pyogenes it was 25 µg/mL. The MIC was 1.56 µg/mL with Streptococcus faecalis; less than 0.01 µg/mL in the assay on Streptococcus pyogenes; 0.39 µg/mL against Treponema hyodysenteriae (strain 94A001, 24 hours); 0.098 µg/mL in the assay on Treponema hyodysenteriae (strain 94A002, 24 hours); 0.78 µg/mL with Staphylococcus aureus (strain 01A005, 24 hours); 0.78 µg/mL in the assay on Staphylococcus aureus (strain 01A052, 24 hours). Also, the MIC came to 1.56 µg/mL with Staphylococcus aureus (strain 01A110, 24 hours); 1.56 µg/mL against Staphylococcus aureus (strain 01A400, 24 hours); 6.25 µg/mL with Haemophilus influenza (strain 54A036, 24 hours); 3.12 µg/mL in the assay with Haemophilus influenza (strain 54A037, 24 hours); 12.5 µg/mL with Haemophilus influenza (strain 54A059, 24 hours); 0.78 µg/mL in assay [1] (strain 01B087R). For the same compound, the MIC in assay [1] (strain 01B111RR) is 0.78 µg/mL; in [1] (strain 01B126, 24 hours), 1.56 µg/mL; in the assay with Bacillus subtilis, 0.39 µg/mL; in the assay with Pasteurella multocida, greater than 200 µg/mL; in [2], 3.12 µg/mL; with Bacteroides vulgatis it was 3.12 µg/mL. The compound further registered an MIC against Neisseria sicca of 25 µg/mL.

As to `CC[C@@]1([C@@H]2O[C@@H]([C@H]3O[C@@](O)(CO)[C@H](C)C[C@@H]3C)C[C@@H]2C)CC[C@H]([C@]2(C)CC[C@]3(C[C@H](O)[C@@H](C)[C@@H]([C@@H](C)[C@@H](OC)[C@H](C)C(=O)O)O3)O2)O1` [Monensin, reference compound], in the assay on rumen fluid (10 μg./ml.), the “increase of propionic acid over the control” value is reported as “about 20%”.

Turning to `CC[C@@H](C(=O)[C@@H](C)[C@@H](O)[C@H](C)[C@@H]1O[C@@H]([C@@H](CC)C(=O)O)CC[C@@H]1C)[C@H]1O[C@]2(C=C[C@@H](O)[C@]3(CC[C@@](C)([C@H]4CC[C@](O)(CC)[C@H](C)O4)O3)O2)[C@H](C)C[C@@H]1C` [Salinomycin, reference compound], the “increase in propionic acid” value in the assay on rumen fluid (5 μg./ml., comparison with Salinomycin) is reported as “about 52%”.
